The record followed here is patent US5948750A, “Conjugates useful in the treatment of prostate cancer” (priority 1997, dated 1999).

Each structure is given as a SMILES string. Like-named read-outs stand apart in the source and are kept apart here. Square brackets hold non-standard residues; d marks the D form. Peptide text beside a SMILES is read from it. * marks the point of attachment. Doxorubicin(3'-N) = COc1cccc2c1C(=O)c1c(O)c3c(c(O)c1C2=O)C[C@@](O)(C(=O)CO)C[C@@H]3O[C@H]1C[C@H](N*)[C@H](O)[C@H](C)O1; Decanoyl(3,6,9-trioxa) = COCCOCCOCC(=O)*; Hyp = O=C(O)[C@@H]1C[C@@H](O)CN1; Chg = N[C@H](C(=O)O)C1CCCCC1; ΔPro = O=C(O)[C@@H]1C=CCN1

The target of series [1] is T1, free PSA (Homo sapiens, UniProt P07288).
T1 construct: required for 50% cleavage of the noted oligopeptides with enzymatically active free PSA
T1 sequence (P07288 25-261): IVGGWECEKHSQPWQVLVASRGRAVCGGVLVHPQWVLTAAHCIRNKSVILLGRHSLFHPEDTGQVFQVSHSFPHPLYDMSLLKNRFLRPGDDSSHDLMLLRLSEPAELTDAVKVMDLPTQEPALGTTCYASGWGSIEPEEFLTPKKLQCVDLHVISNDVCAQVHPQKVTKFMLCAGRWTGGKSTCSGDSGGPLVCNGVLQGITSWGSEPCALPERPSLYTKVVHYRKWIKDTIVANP
As to the kind of experiment: Recognition of oligopeptide-doxorubicin conjugates by free PSA (HPLC cleavage assay). The class given is biochemical. To be noted: conjugate to PSA molar ratio 100 to 1; enzymatically active free PSA. Here is the method:
The conjugates prepared as described in Examples 3-5 were individually dissolved in PSA digestion buffer (12 mM tris(hydroxymethyl)-aminomethane pH 8.0, 25 mM NaCl, 0.5 mM CaCl2) and the solution added to PSA at a molar ration of 100 to 1. Alternatively, the PSA digestion buffer utilized is 50 mM tris(hydroxymethyl)-aminomethane pH 7.4, 140 mM NaCl. The reaction is quenched after various reaction times by the addition of trifluoroacetic acid (TFA) to a final 1% (volume/volume). Alternatively the reaction is quenched with 10 mM ZnCl2. The quenched reaction was analyzed by HPLC on a reversed-phase C18 column using an aqueous 0.1% TFA/acetonitrile gradient. […] If no salt is indicated for the conjugate, the free conjugate was tested. The oligopeptide-cytotoxic agent conjugates described in Examples 4 and 5 were assessed for the amount of time (in minutes) required for 50% cleavage of the oligopeptide with enzymatically active free PSA and 50% cleavage occurred in less than 2 hours for those conjugates.

For the next series, the system named is DuPRO cells. As to the kind of experiment: In vitro cytotoxicity of peptidyl derivatives of doxorubicin, Alamar Blue assay, DuPRO. The series is classed as cell-based. To be noted: 72 HRS, read-out: DUPRO Cell Kill in 72 HRS EC 50. How it is done:
(§1) The cytotoxicities of the cleaveable oligopeptide-doxorubicin conjugates, prepared as described in Examples 3 and 4, against a line of cells which is known to be killed by unmodified doxorubicin were assessed with an Alamar Blue assay. Specifically, cell cultures of LNCap prostate tumor cells (which express enzymatically active PSA) or DuPRO cells in 96 well plates was diluted with medium (Dulbecco's […]-α[MEM-α]) containing various concentrations of a given conjugate (final plate well volume of 200 μl). The cells were incubated for 3 days at 37° C., 20 μl of Alamar Blue is added to the assay well. The cells were further incubated and the assay plates were read on a EL-310 ELISA reader at the dual wavelengths of 570 and 600 nm at 4 and 7 hours after addition of Alamar Blue. Relative percentage viability at the various concentration of conjugate tested was then calculated versus control (no conjugate) cultures. If no salt is indicated, the free conjugate was tested.

Series [2] relates to LNCap prostate tumor cells (which express enzymatically active PSA). Description: In vitro cytotoxicity of peptidyl derivatives of doxorubicin, Alamar Blue assay, LNCaP. The series is classed as cell-based. To be noted: 72 HRS (3 days at 37° C.), read-out: LNCaP Cell Kill in 72 HRS EC 50. Here is the method:
as §1
On the technique in general: Resazurin is reduced to fluorescent resorufin, in cell work by metabolically active cells.

The target of series [3] is T1, free PSA. The series is classed as biochemical. To be noted: for Substrate cleavage by PSA at 3 hours: oligopeptide to PSA molar ratio 100 to 1; for Time to 50% Substrate Cleavage by PSA: free psa. How it is done: The oligopeptides prepared as described in Example 1 were individually dissolved in PSA digestion buffer (12 mM tris(hydroxymethyl)-aminomethane pH 8.0, 25 mM NaCl, 0.5 mM CaCl2) and the solution added to PSA at a molar ration of 100 to 1. Alternatively, the PSA digestion buffer utilized is 50 mM tris(hydroxymethyl)-aminomethane pH 7.4, 140 mM NaCl. The reaction is quenched after various reaction times by the addition of trifluoroacetic acid (TFA) to a final 1% (volume/volume). Alternatively the reaction is quenched with 10 mM ZnCl2. The quenched reaction was analyzed by HPLC on a reversed-phase C18 column using an aqueous 0.1% TFA/acetonitrile gradient. […] Oligopeptides containing free amine moieties (ie. comprising hArg, Orn, Lys and or 3PAL) were tested as TFA salts. All other oligopeptides were tested as neutral compounds.

On to `COc1cccc2c1C(=O)c1c(O)c3c(c(O)c1C2=O)C[C@@](O)(C(=O)CO)C[C@@H]3O[C@H]1C[C@H](NC(=O)[C@H](CC(C)(C)C)NC(=O)[C@H](CO)NC(=O)[C@H](CCC(N)=O)NC(=O)[C@@H](NC(=O)[C@H](CO)NC(=O)[C@H](C)NC(=O)[C@@H]2C[C@@H](O)CN2C(C)=O)C2CCCCC2)[C@H](O)[C@H](C)O1`, for which, at free PSA [1], the “Time to 50% Substrate Cleavage by PSA” value came to 25 min.
As for `COc1cccc2c1C(=O)c1c(O)c3c(c(O)c1C2=O)C[C@@](O)(C(=O)CO)C[C@@H]3O[C@H]1C[C@H](NC(=O)[C@H](CC(C)C)NC(=O)[C@H](CO)NC(=O)[C@H](CCC(N)=O)NC(=O)[C@@H](NC(=O)[C@H](CO)NC(=O)[C@H](C)NC(=O)[C@@H]2C[C@@H](O)CN2C(C)=O)C2CCCCC2)[C@H](O)[C@H](C)O1` (relative stereo) [Ac-(4-trans-L-Hyp)ASChgQ-SL-DOX (3'), [N-Ac-(4-trans-L-Hyp)]-Ala-Ser-Chg-Gln-Ser-Leu-Dox], the “Time to 50% Substrate Cleavage by PSA” value at free PSA [1] stood at 20 min. For the same compound, the EC50 with DuPRO cells was determined as 90 µM; in series [2] it was 4.5 µM.
Take `CC(=O)N1C[C@H](O)C[C@H]1C(=O)N[C@@H](C)C(=O)N[C@@H](CO)C(=O)N[C@H](C(=O)N[C@@H](CCC(N)=O)C(=O)N[C@@H](CO)C(=O)N1Cc2ccccc2C[C@H]1C(=O)O)C1CCCCC1` [Ac-(4-trans-L-Hyp)ASChgQ-S(TIC)-acid]: the “Substrate cleavage by PSA at 3 hours” value at free PSA [3] is listed as 16%.
In the case of `CC(=O)N1C[C@H](O)C[C@H]1C(=O)N[C@@H](C)C(=O)N[C@@H](CO)C(=O)N[C@H](C(=O)N[C@@H](CCC(N)=O)C(=O)N[C@@H](CO)C(=O)N[C@@H](CC(C)C)C(=O)O)C1CCCCC1` [Ac-(4-trans-L-Hyp)ASChgQ-SL-acid, [N-Ac-(4-trans-L-Hyp)]-Ala-Ser-Chg-Gln-Ser-Leu-OH] (Ac-[Hyp]AS[Chg]QSL-OH), the “Time to 50% Substrate Cleavage by PSA” value on free PSA [3] was determined as 75 min.
With `CC(=O)N1C[C@H](O)C[C@H]1C(=O)N[C@H](C(=O)N[C@@H](CCC(N)=O)C(=O)N[C@@H](CO)C(=O)N[C@@H](CO)C(=O)N[C@@H](CO)C(=O)N[C@@H](CC(C)C)C(=O)O)C1CCCCC1` [Ac-(4-trans-L-Hyp)ChgQ-SSSL-acid] (Ac-[Hyp][Chg]QSSSL-OH), the “Substrate cleavage by PSA at 3 hours” value at free PSA [3] came out at 0%.
Turning to `CC(=O)N1CC=C[C@H]1C(=O)N[C@@H](C)C(=O)N[C@@H](CO)C(=O)N[C@H](C(=O)N[C@@H](CCC(N)=O)C(=O)N[C@@H](CO)C(=O)N[C@@H](CC(C)C)C(=O)O)C1CCCCC1` [Ac-(Dehydro-Pro)-ASChgQ-SL-acid] (Ac-[ΔPro]AS[Chg]QSL-OH), the “Substrate cleavage by PSA at 3 hours” value at free PSA [3] is listed as 28%.
For `CC(=O)N1CCC[C@H]1C(=O)N[C@@H](C)C(=O)N[C@@H](CO)C(=O)N[C@H](C(=O)N[C@@H](CCC(N)=O)C(=O)N[C@@H](CO)C(=O)N[C@@H](CC(C)C)C(=O)O)C1CCCCC1` [Ac-PASChgQ-SL-acid] (Ac-PAS[Chg]QSL-OH), the “Time to 50% Substrate Cleavage by PSA” value at free PSA [3] amounted to 150 min.
On the same count and under the same terms, in the case of `CC(=O)N1CCC[C@H]1C(=O)N[C@@H](CO)C(=O)N[C@@H](CO)C(=O)N[C@H](C(=O)N[C@@H](CCC(N)=O)C(=O)N[C@@H](CO)C(=O)N[C@H](C(=O)O)C(C)C)C1CCCCC1` [Ac-PSSChgQ-SV-acid] it was 120 min.
As for `COCCOCCOCC(=O)N1C[C@H](O)C[C@H]1C(=O)N[C@@H](C)C(=O)N[C@@H](CO)C(=O)N[C@H](C(=O)N[C@@H](CCC(N)=O)C(=O)N[C@@H](CO)C(=O)N[C@@H](CC(C)C)C(=O)O)C1CCCCC1` [PEG(2)-(4-trans-L-Hyp)-ASChgQ-SL-acid] ({Decanoyl(3,6,9-trioxa)}-[Hyp]AS[Chg]QSL-OH), at free PSA [3], the “Substrate cleavage by PSA at 3 hours” value is on record as 44%.
Take `COCCOCCOCC(=O)N1C[C@H](O)C[C@H]1C(=O)N[C@@H](C)C(=O)N[C@@H](CO)C(=O)N[C@H](C(=O)N[C@@H](CCC(N)=O)C(=O)N[C@@H](CO)C(=O)N[C@@H](CC(C)C)C(=O)N[C@H]1C[C@H](O[C@H]2C[C@](O)(C(=O)CO)Cc3c(O)c4c(c(O)c32)C(=O)c2c(OC)cccc2C4=O)O[C@@H](C)[C@H]1O)C1CCCCC1` [PEG(2)-(4-trans-L-Hyp)ASChgQ-SL-DOX (3')] ({Decanoyl(3,6,9-trioxa)}-[Hyp]AS[Chg]QSL-{Doxorubicin(3'-N)}): at free PSA [1], the “Time to 50% Substrate Cleavage by PSA” value came out at 20 min.
